Each structure is given as a SMILES string.

For 16 compounds, Vd, Vdss and clearance results are on record in ChEMBL document CHEMBL1614630, “Extrapolation of preclinical pharmacokinetics and molecular feature analysis of "discovery-like" molecules to predict human pharmacokinetics” (Drug Metab Dispos, 2006).

The nature of series [1]: Volume of distribution at steady state in dog after iv administration. The settings on record: in vivo.
The nature of series [2]: Volume of distribution at steady state in human after iv administration. Particulars: in vivo.
Series [3] is described as follows: Volume of distribution at steady state in rat after iv administration. The settings on record: in vivo.
Series [4] in a line: Clearance in human after iv administration. The settings on record: in vivo.
The nature of series [5]: Clearance in dog after iv administration. Particulars: in vivo.
Series [6] can be described thus: Volume of distribution at steady state in monkey after iv administration. Particulars: macaca, in vivo.
Series [7] is described as follows: Clearance in rat after iv administration. Particulars: in vivo.
The nature of series [8]: Clearance in monkey after iv administration. The settings on record: macaca, in vivo.

On to `CCCN1CCC[C@@H](c2cccc(S(C)(=O)=O)c2)C1`, for which the values for the distribution volume (Vd) in series [1], in series [2] and in series [6] were 2.5 L/kg, 2.2 L/kg and 1.4 L/kg, respectively. In addition, the Vdss in series [3] came to 1.5 L/kg. The clearance in series [4] was determined as 7.2 mL/min/kg; in series [5], 36.7 mL/min/kg; in series [7] it was 46.7 mL/min/kg; in series [8], 33.3 mL/min/kg.

In the case of `CCOc1cc(Cc2cnc(N)nc2N)cc(OCC)c1-n1cccc1` [EPIROPRIM], the Vd in series [1] is 8.3 L/kg; in series [2], 2.5 L/kg; in series [6] it was 5.1 L/kg. For the same compound, the distribution volume (Vdss) in series [3] was determined as 4.6 L/kg. Further, the clearance is 3.5 mL/min/kg in series [4], 10.7 mL/min/kg in series [5], 45 mL/min/kg in series [7] and 30.6 mL/min/kg in series [8].

Take `CC1COc2c(N3CCN(C)CC3)c(F)cc3c(=O)c(C(=O)O)cn1c23` (stereo not given) [OFLOXACIN]: the figures for the Vd in series [1], in series [2] and in series [6] were 1.15 L/kg, 1.78 L/kg and 1.6 L/kg, respectively. This compound also gave a Vdss in series [3] of 1.66 L/kg. For the same compound, the clearance was found to be 4.53 mL/min/kg in series [4], 2.65 mL/min/kg in series [5], 26.3 mL/min/kg in series [7] and 7.5 mL/min/kg in series [8].

With `CCN1CCC[C@H]1CNC(=O)c1c(OC)ccc(Br)c1OC` [REMOXIPRIDE], the results for the Vd in series [1], in series [2] and in series [6] were 1.6 L/kg, 0.7 L/kg and 1.1 L/kg, respectively. For the same compound, the volume of distribution (Vdss) in series [3] came to 4.5 L/kg. The clearance in series [4] turned out to be 1.7 mL/min/kg; in series [5], 4.9 mL/min/kg; in series [7], 170 mL/min/kg; in series [8], 11.8 mL/min/kg.

On to `Cc1ncc2n1-c1ccc(Cl)cc1C(c1ccccc1F)=NC2` [MIDAZOLAM], for which the values for the volume of distribution (Vd) in series [1], in series [2] and in series [6] were 3 L/kg, 1.1 L/kg and 1.5 L/kg, respectively. The Vdss in series [3] is 1.6 L/kg. The clearance in series [4] came to 6.6 mL/min/kg; in series [5], 27 mL/min/kg; in series [7] it was 67 mL/min/kg; in series [8], 24.2 mL/min/kg.

Regarding `OC(CCN1CCCCC1)(c1ccccc1)C1CC2C=CC1C2` (stereo not given) [BIPERIDEN], the Vd came to 9.5 L/kg in series [1], 6.2 L/kg in series [2] and 3.6 L/kg in series [6]. Also, the distribution volume (Vdss) in series [3] was 14 L/kg. The clearance was determined as 15.3 mL/min/kg in series [4], 27 mL/min/kg in series [5] and 21.9 mL/min/kg in series [8].

As to `O=C(CCCN1CCC(O)(c2ccc(Cl)cc2)CC1)c1ccc(F)cc1` [HALOPERIDOL], the volume of distribution (Vd) in series [1] came out at 37 L/kg; in series [6], 6.6 L/kg. This compound registered a Vdss in series [3] of 10.4 L/kg.

As to `COc1ccc(Cl)cc1[C@]1(F)C(=O)Nc2cc(C(F)(F)F)ccc21` [FLINDOKALNER], the volume of distribution (Vd) in series [1] stood at 3.2 L/kg; in series [2] it was 2.35 L/kg; in series [6], 5.4 L/kg. The Vdss in series [3] is 3.4 L/kg. In addition, the clearance is 7.63 mL/min/kg in series [4], 3.1 mL/min/kg in series [5], 29.9 mL/min/kg in series [7] and 40.2 mL/min/kg in series [8].

Regarding `CC#C[C@]1(O)CC[C@H]2[C@@H]3CCC4=CC(=O)CCC4=C3[C@@H](c3ccc(N(C)C)cc3)C[C@@]21C` [MIFEPRISTONE], the distribution volume (Vd) in series [1] is 10.5 L/kg; in series [2], 0.3 L/kg; in series [6], 32.5 L/kg. Also, the distribution volume (Vdss) in series [3] was 4.3 L/kg. Also, the clearance is 0.33 mL/min/kg in series [4], 15.6 mL/min/kg in series [5], 50 mL/min/kg in series [7] and 24.2 mL/min/kg in series [8].

As to `COc1ccc([C@@H]2Sc3ccccc3N(CCN(C)C)C(=O)[C@@H]2OC(C)=O)cc1` [DILTIAZEM], the volume of distribution (Vd) in series [1] was 21.4 L/kg; in series [6], 3.5 L/kg. Further, in series [3], the distribution volume (Vdss) turned out to be 3.6 L/kg. Further, the clearance came to 12 mL/min/kg in series [4], 59 mL/min/kg in series [5], 82.3 mL/min/kg in series [7] and 34.5 mL/min/kg in series [8].

`CCC1=C[C@@H]2CN(C1)Cc1c([nH]c3ccccc13)[C@@](C(=O)OC)(c1cc3c(cc1OC)N(C)[C@H]1[C@@](O)(C(=O)OC)[C@H](OC(C)=O)[C@]4(CC)C=CCN5CC[C@]31[C@@H]54)C2` [VINORELBINE]: the results for the Vd in series [1], in series [2] and in series [6] were 49.6 L/kg, 75.6 L/kg and 11.4 L/kg, respectively. In series [3], this compound displayed a Vdss of 24.4 L/kg. Further, the clearance in series [4] is 21 mL/min/kg; in series [5], 20 mL/min/kg; in series [7], 31.7 mL/min/kg; in series [8], 23.6 mL/min/kg.

On to `C[C@H]1NCc2cc(-c3ccc4c(=O)c(C(=O)O)cn(C5CC5)c4c3OC(F)F)ccc21` [GARENOXACIN], for which the Vd in series [1] turned out to be 1.3 L/kg; in series [2], 1 L/kg; in series [6], 1 L/kg. In series [3], this compound came in with a Vdss of 0.9 L/kg. Also, the clearance worked out at 1.2 mL/min/kg in series [4], 2.4 mL/min/kg in series [5], 12.1 mL/min/kg in series [7] and 3.4 mL/min/kg in series [8].

For `COC(=O)C1=C(C)NC(C)=C(C(=O)OC)C1c1ccccc1[N+](=O)[O-]` [NIFEDIPINE], the Vd turned out to be 1.15 L/kg in series [1] and 0.5 L/kg in series [6]. Further, the Vdss in series [3] worked out at 0.13 L/kg.

In the case of `COc1ccc([C@H](CC(=O)O)N2CCN(CCCc3ccc4c(n3)NCCC4)C2=O)cn1`, the distribution volume (Vd) in series [1] worked out at 0.9 L/kg; in series [2] it was 0.2 L/kg; in series [6], 0.3 L/kg. The Vdss in series [3] was determined as 1.5 L/kg. In addition, the clearance in series [4] is 1 mL/min/kg; in series [5] it was 5.4 mL/min/kg; in series [8], 9 mL/min/kg.

For the compound `Cc1cc(C)c(/C=C2\C(=O)Nc3ccccc32)[nH]1` [SEMAXANIB], the distribution volume (Vd) in series [1] is 1.4 L/kg; in series [2], 0.98 L/kg; in series [6], 1.45 L/kg. The same compound came in with a volume of distribution (Vdss) in series [3] of 1.6 L/kg. The clearance in series [4] turned out to be 14 mL/min/kg; in series [5], 52 mL/min/kg; in series [7], 45 mL/min/kg; in series [8] it was 25.7 mL/min/kg.

As to `CN(C)CCCN1c2ccccc2Sc2ccc(Cl)cc21` [CHLORPROMAZINE], the Vd in series [1] amounted to 16.3 L/kg; in series [2] it was 11.2 L/kg; in series [6] it was 8 L/kg. Also, the Vdss in series [3] is 29.1 L/kg. Besides, the clearance in series [4] was determined as 4.3 mL/min/kg; in series [5], 53 mL/min/kg; in series [7], 61 mL/min/kg; in series [8], 24.6 mL/min/kg.

Broadly, the Vd is a proportionality between amount in the body and measured concentration, not a real space. A word on the Vdss: it is a proportionality between amount in the body and measured concentration, not a real space. By clearance is commonly meant the volume of plasma or blood freed of the substance per unit of time.
